pIC50: −log10 of the molar value.
Biological target: T1, Type IV collagenase (MMP-9) (Homo sapiens, UniProt P14780)
T1 construct: made in house; host or cells: endogenous secretion by TPA-stimulated human fibrosarcoma HT 1080 cells; purified from conditioned medium
Assay: Type IV collagenase (MMP-9) inhibition assay, fluorescent substrate kit
Format: biochemical
Details: activated MMP-9 from HT 1080 cells; type IV collagenase activity kit, fluorescent intensity
Method: (1) Isolation and Purification of MMP-9 (92 kDa, Gelatinase B)
Type IV collagenase (MMP-9) was purified according to the methods descrived in the following literature.
Subsequently, activated MMP-9 was obtained by treating the pro-MMP-9 with trypsin.
(2) Assay Methods of Type IV Collagenase Inhibitors
Collagenase assay was performed using the activated MMP-9 described above and the substrate supplied in the type IV collagenase activity kit (YAGAI, inc.), according to the manufacturer's protocol. The following 4 assays are performed per compound (inhibitor). • (A) substrate ([…]), enzyme (MMP-9), inhibitor • (B) substrate ([…]), inhibitor • (C) substrate ([…]), enzyme (MMP-9) • (D) substrate ([…])
According to the manufacturer's protocol, fluorescent intensity was measured and percent inhibition was determined by the following equation. Inhibition (%)={1−(A−B)/(C−D;)}×100

T1 sequence (P14780 107-707 limits assumed): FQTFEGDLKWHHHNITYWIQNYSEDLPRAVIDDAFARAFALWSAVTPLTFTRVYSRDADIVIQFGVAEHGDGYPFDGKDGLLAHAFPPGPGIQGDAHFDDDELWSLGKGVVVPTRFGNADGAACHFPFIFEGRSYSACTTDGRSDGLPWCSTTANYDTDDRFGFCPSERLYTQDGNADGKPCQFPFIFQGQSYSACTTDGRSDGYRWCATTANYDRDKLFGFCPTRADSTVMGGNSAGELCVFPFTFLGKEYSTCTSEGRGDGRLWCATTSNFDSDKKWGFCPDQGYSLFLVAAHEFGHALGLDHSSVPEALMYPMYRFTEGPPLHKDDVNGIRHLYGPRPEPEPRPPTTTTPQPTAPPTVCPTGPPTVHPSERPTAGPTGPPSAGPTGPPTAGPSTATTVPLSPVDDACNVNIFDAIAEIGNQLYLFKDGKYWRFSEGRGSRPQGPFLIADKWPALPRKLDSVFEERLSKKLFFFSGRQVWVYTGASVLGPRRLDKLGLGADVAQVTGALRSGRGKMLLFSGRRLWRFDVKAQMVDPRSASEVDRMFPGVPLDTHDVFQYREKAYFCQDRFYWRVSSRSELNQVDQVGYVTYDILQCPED

pIC50	Structure (SMILES)
7.67	O=C(NO)C(Cc1nc2ccccc2[nH]1)NS(=O)(=O)c1ccc(-c2ccccc2)cc1 (racemic) [Example 1b.1-35]
6.68	O=C(O)[C@@H](Cc1ccccc1)NS(=O)(=O)c1ccc(-c2nnn(-c3ccccc3)n2)cc1 [Example 1a-5-3]
8.25	O=C(NO)[C@@H](Cc1ccccc1)NS(=O)(=O)c1ccc(-c2nnn(-c3ccccc3)n2)cc1 [Example 1b-211]
